Laboratory results taken from patent US5246931A, “Carbocyclic nucleoside analogs” (priority 1991, dated 1993).
Values after ≈ are worked out from the molar mass of the structure shown. Values joined by “and” are separate entries in the source; they are usually repeats but may differ in a detail not shown here. Equal entries are not always repeated.

How the values were obtained:
[1] = test system: Herpes simplex type 1 (HSV-1) strain E-377; assay: CPE inhibition assay, HSV-1 (E-377) in Vero cells; conditions: for VR (virus rating): HSV-1 (E-377), Vero
[2] = test system: Herpes simplex type 2 (HSV-2) strain MS; assay: CPE inhibition assay, HSV-2 (MS) in Vero cells
[3] = Toxicity in uninfected mice; type: in vivo, Swiss mice (CD-1); conditions: subcutaneous once daily, 7 doses
Protocol: (§1) Four-week-old female outbred Swiss mice (CD-1, VAF+, Charles River Labs) were housed 5 per Microisolator® cage. Feed and water were supplied ad libitum. Fifteen mice were randomly assigned to each of the following treatment groups:
(§2) Test compounds were diluted in 0.4% caboxymethylcellulose (CMC) prepared in phosphate buffered saline (PBS) at aconcentrations consistent with dosing at 0.1 ml per 10 g of body weight. Compounds were administered subcutaneously once daily for a total of 7 doses. Five mice in each treatment group served as uninfected toxicity controls. The remaining ten mice in each group were challenged intraperitoneally with an LD90 dose of the twelfth in vivo passage of Herpesvirus 1 (strain 123). Virus challenge was administered two hours after the first dose of compound was given. Mortality was monitored daily for 21 days. The mortality rates, average day of death, geometric mean time to death and virus rating were calculated for each treatment group.

[4] = test system: Herpesvirus 1 (strain 123); assay: In vivo activity against Herpesvirus 1 in mice (intraperitoneal challenge); parameters: species or system Swiss mice (CD-1)
Protocol: E. Evaluation of Compounds for In Vivo Activity Against Herpesvirus 1 in Mice
as §1, §2

[5] = test system: duck hepatitis B virus (DHBV); assay: Efficacy against hepatitis B virus in vivo in ducklings; parameters: species or system Pekino ducklings; conditions: for Serum DHBV DNA: after treatment (days 10-17)
Protocol: F. Evaluation of Compounds for Efficacy Against Hepatitis B Virus In Vivo in Ducklings
The test method is an adaptation of the method of Smee, et al., Antimicrob. Agents Chemotherap. 27 277 (1985). The serum level of duck hepatitis B virus (DHBV) DNA was monitored in 6 infected Pekino ducklings from age 6 days to age 27 days. Four ducklings were treated with 70 mg/kg/day IP, b.i.d. of the test compound as a 3 mg/ml solution in 0.9% aqueous NaCl on days 10-17. Two control ducklings were treated with 23 ml/kg/day IP, b.i.d. of 0.9% aqueous NaCl on days 10-17. The level of DHBV DNA in the duckling serum was measured daily.

[6] = test system: HSV-1 (123); assay: Plaque reduction in Vero cells, HSV-1 (123); type: cell-based, Herpes simplex virus type 1; conditions: Human alphaherpesvirus 1, read-out: MIC50
Protocol: (§3) A-2. Alternate Method for Evaluation of Compounds for Activity Against Herpes Simplex Virus Types 1 and 2
(§4) Confluent Vero cell monolayers were infected with a dilution of stock virus which yielded approximately 100 plaque forming units (pfu) per well. After the adsorption period, the infected cell monolayers were treated in duplicate with serial dilutions of the test compound. Duplicate cell controls containing medium alone and virus controls containing medium and virus were run simultaneously with the test compound. After incubation for 3 to 4 days to allow for the development of visible, discrete plaques in the untreated, virus infected control cultures, the monolayers were fixed with formaldehyde and stained with crystal violet. Plaques visible to the unaided eye were counted and the mean number of plaques in the duplicate wells for each compound concentration tested and for the untreated, virus infected controls were determined. The concentration of test compound which reduced by 50% the mean number of plaques in the untreated, virus infected control cultures was then determined and expressed as the ID50.

[7] = test system: Varicella-Zoster Virus (clinical isolate DM625); assay: microbe, parasite or virus in culture; type: cell-based; conditions: Human alphaherpesvirus 3, Fibroblast, 120 h; read-out: MIC50
[8] = test system: HSV-1 (E-377); assay: Plaque reduction in Vero cells, HSV-1 (E-377); type: cell-based, Herpes simplex virus type 1; conditions: Human alphaherpesvirus 1, read-out: MIC50
Protocol: as §3, §4

[9] = test system: HSV-2; assay: Plaque reduction in Vero cells, HSV-2; type: cell-based, Herpes simplex virus type 2; conditions: Human alphaherpesvirus 2, HSV-2, Vero, read-out: MIC50
Protocol: as §3, §4

[10] = test system: human foreskin fibroblasts (HFF); assay: MTT cytotoxicity assay in human foreskin fibroblasts
[11] = test system: African green monkey kidney (Vero) cells; assay: Drug cytotoxicity in Vero host cells (CPE assay); conditions: Vero
[12] = test system: Herpes simplex type 2 (HSV-2) strain MS; conditions: monkey, vero cells
[13] = Drug cytotoxicity in Vero host cells (CPE assay); conditions: monkey, vero cells
[14] = test system: Herpes simplex type 1 (HSV-1) strain E-377; conditions: monkey, vero cells

Nc1nc(Cl)c2ncn(C3CC(CO)C3CO)c2n1 (stereo not shown) [Example 1H, 3-(2'-Amino-6'-chloro-9'H-purin-9'-yl)-1,2-bis(hydroxymethyl)cyclobutane]
VR (virus rating) [1]: 1.4 | VR (virus rating) [2]: 0.6 and 0.5

Nc1nc2c(ncn2C2CC(CO)C2CO)c(=O)[nH]1 (stereo not shown) [Example 1I, 9-(2',3'-Bis(hydroxymethyl)cyclobutyl)guanine]
No. Dead/No. Uninfected ([3]; 3.2 mg/kg): 0/5 | No. Dead/No. Uninfected ([3]; 10 mg/kg): 0/5 | No. Dead/No. Uninfected ([3]; 32 mg/kg): 0/3 | VR (virus rating) = GMTD of experimental/GMTD of diluent treated control ([4]; 3.2 mg/kg): 1.3 | VR (virus rating) = GMTD of experimental/GMTD of diluent treated control ([4]; 10 mg/kg): 1.6 | VR (virus rating) = GMTD of experimental/GMTD of diluent treated control ([4]; 32 mg/kg): 2.5 | Deaths of treated ducks ([5]; DHBV-infected ducklings, 70 mg/kg/day IP b.i.d. on days 10-17): ducks 3 and 4 died on day 18 and day 26, respectively | Serum DHBV DNA ([5]; age 18 days, lines = ducks 1-4 in order): < 1 ng/mL | Serum DHBV DNA ([5]; age 19 days, lines = ducks 1, 2, 4): < 1 ng/mL | Serum DHBV DNA ([5]; age 20 days, lines = ducks 1, 2, 4): < 1 ng/mL | Serum DHBV DNA ([5]; age 21 days, lines = ducks 1, 2, 4): < 1 ng/mL | IC50 [6]: 1 µg/mL (≈ 3.77 µM) | VR (virus rating) [1]: 5.7 and 5.1 | IC50 [7]: 1.4 µg/mL (≈ 5.28 µM) | IC50 [8]: 0.5 µg/mL (≈ 1.88 µM) | IC50 [9]: 1 µg/mL (≈ 3.77 µM) | VR (virus rating) [2]: 4.1 and 3.4 | MTT Assay ([10]; 3.2 ug/ml): 79 % of control | MTT Assay ([10]; 10 ug/ml): 76 % of control | MTT Assay ([10]; 32 ug/ml): 72 % of control | MTT Assay ([10]; 100 ug/ml): 62 % of control

Nc1ncnc2c1ncn2C1CC(CO)C1CO (stereo not shown) [Example 4C, 9-(2',3'-Bis(hydroxymethyl)cyclobutyl)adenine]
MTC: minimum drug concentration causing any cytotoxicity ([11]; HSV-1 (E-377) assay): 32 µg/mL | MTC: minimum drug concentration causing any cytotoxicity ([11]; HSV-2 (MS) assay): 100 µg/mL | TI: therapeutic index, minimum cytotoxic drug concentration / ID50 [12]: 5.5 | VR (virus rating) [2]: 1.8

Nc1nc2c(ncn2C2CC(CO)C2)c(=O)[nH]1 (stereo not shown) [Example 5G, 9-(3'-(Hydroxymethyl)cyclobutyl)guanine]
MTC: minimum drug concentration causing any cytotoxicity ([11]; HSV-2 (MS) assay): > 320 µg/mL | MCC [13]: > 320 µg/mL | TI: therapeutic index, minimum cytotoxic drug concentration / ID50 [14]: > 2.2 | TI: therapeutic index, minimum cytotoxic drug concentration / ID50 [12]: > 1.0 | VR (virus rating) [1]: 2.1 | IC50 ([1]; Human alphaherpesvirus 1, Vero, read-out: ID50: minimum drug concentration that inhibited the CPE by 50%): 146 µg/mL (≈ 621 µM) | VR (virus rating) [2]: 0.9

Nc1nc2c(ncn2C2CC(CO)C2O)c(=O)[nH]1 (stereo not shown) [Example 42P, 9-(2'-hydroxy-3'-hydroxymethyl-1'-cyclobutyl)guanine]
IC50 [6]: 3 µg/mL (≈ 11.9 µM) | IC50 [8]: 1 µg/mL (≈ 3.98 µM) | IC50 [9]: 1 µg/mL (≈ 3.98 µM)
